IC50 data for 10 molecules are collected here from patent US9273057B2 (Bristol-Myers Squibb Company, priority 2012, dated 2016).

The target in this assay is CK2A1 (CK2α/β) (Homo sapiens, UniProt P68400). Kind of assay: CK2 kinase assay, CK2A1 (CK2α/β). It counts as biochemical. As to conditions: Table A; read-out: CK2A1 (CK2α/β) (IC50).
Sequence of CK2A1 (CK2α/β) (P68400 whole entry, species assumed): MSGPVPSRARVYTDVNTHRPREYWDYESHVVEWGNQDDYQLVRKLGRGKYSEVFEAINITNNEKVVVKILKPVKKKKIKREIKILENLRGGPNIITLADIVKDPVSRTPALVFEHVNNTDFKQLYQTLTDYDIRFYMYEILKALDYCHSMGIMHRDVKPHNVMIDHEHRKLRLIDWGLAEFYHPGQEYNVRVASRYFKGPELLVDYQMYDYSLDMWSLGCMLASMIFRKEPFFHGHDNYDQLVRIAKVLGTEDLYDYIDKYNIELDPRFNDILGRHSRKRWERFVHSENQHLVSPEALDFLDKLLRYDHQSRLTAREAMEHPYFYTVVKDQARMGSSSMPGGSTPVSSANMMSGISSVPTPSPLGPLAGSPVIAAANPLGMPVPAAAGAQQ
Sequence of CK2A1 (CK2α/β) (P67870 whole entry partner, species assumed): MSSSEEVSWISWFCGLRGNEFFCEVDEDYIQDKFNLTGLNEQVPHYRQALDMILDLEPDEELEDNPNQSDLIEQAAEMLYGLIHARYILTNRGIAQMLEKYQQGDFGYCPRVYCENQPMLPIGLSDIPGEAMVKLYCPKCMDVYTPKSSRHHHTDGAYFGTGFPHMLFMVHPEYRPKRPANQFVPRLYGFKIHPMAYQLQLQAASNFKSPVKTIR
Take `N#Cc1cc(Nc2nc(NC3CC3)c3ncc(C#N)n3n2)c(Cl)c(N2CCN(C3CN(C(=O)CC(N)=O)C3)CC2)c1` [Example 519, 3-{3-[4-(2-chloro-5-cyano-3-{[7-cyano-4-(cyclopropylamino)imidazo[2,1-f][1,2,4]triazin-2-yl]amino}phenyl)piperazin-1-yl]azetidin-1-yl}-3-oxopropanamide]: the IC50 came to 3.2 nM.
The result for `CCOC1CC1C(=O)N1CC(N2CCN(c3cc(C#N)cc(Nc4nc(NC5CC5)c5ncc(C#N)n5n4)c3Cl)CC2)C1` (stereo not shown) [Example 520, 2-[(2-chloro-5-cyano-3-{4-[1-(2-ethoxycyclopropane-carbonyl)azetidin-3-yl]piperazin-1-yl}phenyl)amino]-4-(cyclopropylamino)imidazo[2,1-f][1,2,4]triazine-7-carbonitrile] reads 4.96 nM; that for `CO[C@@H](C)C(=O)N1CC(N2CCN(c3cc(C#N)cc(Nc4nc(NC5CC5)c5ncc(C#N)n5n4)c3Cl)CC2)C1` [Example 521, 2-{[2-chloro-5-cyano-3-(4-{1-[(2S)-2-methoxypropanoyl]azetidin-3-yl}piperazin-1-yl)phenyl]amino}-4-(cyclopropylamino)imidazo[2,1-f][1,2,4]triazine-7-carbonitrile], 3.35 nM.
The result for `CC1(C(=O)N2CC(N3CCN(c4cc(C#N)cc(Nc5nc(NC6CC6)c6ncc(C#N)n6n5)c4Cl)CC3)C2)COC1` [Example 522, 2-[(2-chloro-5-cyano-3-{4-[1-(3-methyloxetane-3-carbonyl)azetidin-3-yl]piperazin-1-yl}phenyl)amino]-4-(cyclopropylamino)imidazo[2,1-f][1,2,4]triazine-7-carbonitrile] reads 3.69 nM.
The result for `N#Cc1cc(Nc2nc(NC3CC3)c3ncc(C#N)n3n2)c(Cl)c(N2CCN(C3CN(C(=O)C4CCOC4)C3)CC2)c1` (stereo not shown) [Example 523, 2-[(2-chloro-5-cyano-3-{4-[1-(oxolane-3-carbonyl)azetidin-3-yl]piperazin-1-yl}phenyl)amino]-4-(cyclopropylamino)imidazo[2,1-f][1,2,4]triazine-7-carbonitrile] reads 4.77 nM.
On to `CCC(CO)(CO)C(=O)N1CC(N2CCN(c3cc(C#N)cc(Nc4nc(NC5CC5)c5ncc(C#N)n5n4)c3Cl)CC2)C1` [Example 524, 2-{[3-(4-{1-[2,2-bis(hydroxymethyl)butanoyl]azetidin-3-yl}piperazin-1-yl)-2-chloro-5-cyanophenyl]amino}-4-(cyclopropylamino)imidazo[2,1-f][1,2,4]triazine-7-carbonitrile], for which the IC50 amounted to 7.45 nM.
The result for `N#Cc1cc(Nc2nc(NC3CC3)c3ncc(C#N)n3n2)c(Cl)c(N2CCC(C3COC3)CC2)c1` [Example 525, 2-((2-chloro-5-cyano-3-(4-(oxetan-3-yl)piperidin-1-yl)phenyl)amino)-4-(cyclopropylamino)imidazo[2,1-f][1,2,4]triazine-7-carbonitrile] reads 3.2 nM; that for `N#Cc1cc(Nc2nc(NC3CC3)c3ncc(C#N)n3n2)c(Cl)c(N2CCC(C(CO)CO)CC2)c1` [Example 526, 2-((2-chloro-5-cyano-3-(4-(1,3-dihydroxypropan-2-yl)piperidin-1-yl)phenyl)amino)-4-(cyclopropylamino)imidazo[2,1-f][1,2,4]triazine-7-carbonitrile], 0.42 nM.
The result for `CC1(C)CC(CN2CCN(c3cc(C#N)cc(Nc4nc(NC5CC5)c5ncc(C#N)n5n4)c3Cl)CC2)O1` (stereo not shown) [Example 527, 2-((2-chloro-5-cyano-3-(4-((4,4-dimethyloxetan-2-yl)methyl)piperazin-1-yl)phenyl)amino)-4-(cyclopropylamino)imidazo[2,1-f][1,2,4]triazine-7-carbonitrile] reads 1.91 nM; that for `C[C@@H]1CC(CN2CCN(c3cc(C#N)cc(Nc4nc(NC5CC5)c5ncc(C#N)n5n4)c3Cl)CC2)O1` (stereo partly drawn) [Example 528, 2-((2-chloro-5-cyano-3-(4-(((4R)-4-methyloxetan-2-yl)methyl)piperazin-1-yl)phenyl)amino)-4-(cyclopropylamino)imidazo[2,1-f][1,2,4]triazine-7-carbonitrile], 0.4 nM.
